Assay results reported in publication PMC7004565, “Nucleotide inhibition of the pancreatic ATP-sensitive K^+ channel explored with patch-clamp fluorometry” (eLife, 2020).

Experiments:
Kir6.2*,G334D-GFP + SUR1 = target: T1, Kir6.2*,G334D-GFP + SUR1 (Homo sapiens, UniProt Q14654, G334D); assay: FRET (ANAP quenching) nucleotide binding in unroofed membranes; settings: Hill fit
T1 construct: ANAP labelling is specific and only full-length Kir6.2 is expressed at the cell membrane; expressed in transfected cells; host or cells: HEK-293T
T1 sequence (Q14654 whole entry G334D): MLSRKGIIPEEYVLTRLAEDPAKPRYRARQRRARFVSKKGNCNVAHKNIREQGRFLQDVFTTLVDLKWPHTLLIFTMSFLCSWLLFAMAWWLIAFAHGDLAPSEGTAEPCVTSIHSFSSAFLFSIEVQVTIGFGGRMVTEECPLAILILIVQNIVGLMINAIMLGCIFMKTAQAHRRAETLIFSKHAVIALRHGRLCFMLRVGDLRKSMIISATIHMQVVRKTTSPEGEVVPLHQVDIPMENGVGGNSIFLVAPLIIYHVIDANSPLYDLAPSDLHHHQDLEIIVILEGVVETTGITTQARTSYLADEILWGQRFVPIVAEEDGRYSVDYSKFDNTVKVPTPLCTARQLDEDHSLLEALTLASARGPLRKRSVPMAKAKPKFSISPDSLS
T1 sequence (Q09428 whole entry partner): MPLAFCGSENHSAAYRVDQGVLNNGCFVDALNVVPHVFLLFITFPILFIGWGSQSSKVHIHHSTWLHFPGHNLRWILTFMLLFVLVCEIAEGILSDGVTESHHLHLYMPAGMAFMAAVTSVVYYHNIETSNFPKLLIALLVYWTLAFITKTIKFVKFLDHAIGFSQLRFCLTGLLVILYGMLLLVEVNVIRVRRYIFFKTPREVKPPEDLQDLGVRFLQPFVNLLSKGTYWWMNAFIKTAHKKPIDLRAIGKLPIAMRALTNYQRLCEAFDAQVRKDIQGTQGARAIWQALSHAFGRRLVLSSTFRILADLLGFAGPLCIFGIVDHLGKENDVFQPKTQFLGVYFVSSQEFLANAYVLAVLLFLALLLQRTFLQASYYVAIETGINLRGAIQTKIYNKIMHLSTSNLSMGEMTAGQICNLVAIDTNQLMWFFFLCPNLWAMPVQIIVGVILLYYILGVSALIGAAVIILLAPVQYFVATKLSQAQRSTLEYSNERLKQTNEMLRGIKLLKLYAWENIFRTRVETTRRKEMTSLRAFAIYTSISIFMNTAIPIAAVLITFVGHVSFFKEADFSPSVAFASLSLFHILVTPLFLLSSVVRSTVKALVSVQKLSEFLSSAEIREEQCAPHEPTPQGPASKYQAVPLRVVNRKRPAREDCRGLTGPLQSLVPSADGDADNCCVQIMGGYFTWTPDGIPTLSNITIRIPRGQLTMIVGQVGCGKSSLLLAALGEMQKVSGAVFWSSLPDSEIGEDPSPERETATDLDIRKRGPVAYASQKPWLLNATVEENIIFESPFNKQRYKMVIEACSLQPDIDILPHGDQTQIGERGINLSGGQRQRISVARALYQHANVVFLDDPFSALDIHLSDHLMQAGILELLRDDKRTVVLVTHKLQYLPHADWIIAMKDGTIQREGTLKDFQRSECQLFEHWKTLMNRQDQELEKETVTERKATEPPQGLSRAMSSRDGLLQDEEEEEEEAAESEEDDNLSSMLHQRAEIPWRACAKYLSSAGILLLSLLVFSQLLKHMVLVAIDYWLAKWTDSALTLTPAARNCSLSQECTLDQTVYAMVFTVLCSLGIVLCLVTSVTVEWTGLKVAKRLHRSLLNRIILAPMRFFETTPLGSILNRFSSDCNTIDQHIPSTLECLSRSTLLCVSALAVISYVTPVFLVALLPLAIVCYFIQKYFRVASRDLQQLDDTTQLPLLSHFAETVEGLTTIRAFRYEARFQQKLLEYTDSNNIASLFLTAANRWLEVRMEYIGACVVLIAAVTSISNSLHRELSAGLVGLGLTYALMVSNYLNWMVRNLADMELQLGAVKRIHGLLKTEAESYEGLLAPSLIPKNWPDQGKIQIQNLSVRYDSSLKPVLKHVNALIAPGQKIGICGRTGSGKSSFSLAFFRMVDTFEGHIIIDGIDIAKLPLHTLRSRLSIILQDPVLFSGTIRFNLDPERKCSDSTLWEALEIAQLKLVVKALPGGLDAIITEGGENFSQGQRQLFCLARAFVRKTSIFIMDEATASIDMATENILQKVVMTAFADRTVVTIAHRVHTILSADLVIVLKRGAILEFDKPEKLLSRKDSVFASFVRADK
From the text: To measure nucleotide binding, cells transfected with Kir6.2*-GFP + SUR1 were briefly sonicated, leaving behind unroofed plasma membrane fragments ([Heuser, 2000]; [Zagotta et al., 2016]; [Puljung et al., 2019]) containing ANAP-labelled KATP channels with the intracellular nucleotide-binding sites exposed to the bath solution. The sample was excited with a 385 nm LED and emitted fluorescence from the membrane fragments was passed through a spectrometer, allowing us to separate ANAP, GFP, and TNP-ATP fluorescence by peak wavelength (Figure 1E,F). As expected from FRET, increasing the concentration of TNP-ATP caused a decrement in the ANAP peak at 472 nm and a concomitant increase in the TNP-ATP peak at 561 nm (Figure 1F). We used the quenching of the ANAP peak as a direct measure of TNP-ATP binding as this signal was specific to KATP. In contrast, the peak TNP-ATP fluorescence may include contributions from both specific and non-specific nucleotide binding, as well as direct excitation of TNP-ATP in solution by the 385 nm excitation light. Due to the sharp cut-off of the GFP emission spectrum at shorter wavelengths, our measurements of peak ANAP fluorescence were unaffected by the presence of the GFP tag on Kir6.2. […]
Epifluorescence imaging and spectroscopy were performed using a Nikon Eclipse TE2000-U microscope with a 60x water immersion objective (Plan Apo VC, NA = 1.2, Nikon; Kingston upon Thames, UK) or a 100x oil immersion objective (Nikon, Apo TIRF, NA = 1.49). […] Fluorescence spectra were collected by exciting ANAP as above but using a 400 nm long-pass emission filter (ThorLabs), then passing emitted light through an IsoPlane 160 Spectrometer (Princeton Instruments; Trenton, NJ) with a 300 grooves mm^-1 grating. […]
Unroofed membranes were prepared as described previously ([Heuser, 2000]; [Zagotta et al., 2016]; [Puljung et al., 2019]). […] Unroofed membrane fragments were nearly invisible in bright-field images and identified by their GFP and ANAP fluorescence. […]

Kir6.2*,C166S-GFP + SUR1 = Kir6.2*,C166S-GFP + SUR1 (Homo sapiens, UniProt Q14654, C166S); assay: Current inhibition in excised inside-out patches (patch-clamp fluorometry)
Kir6.2*,C166S-GFP + SUR1, sequence (Q14654 whole entry C166S): as the sequence (Q14654 whole entry G334D) above, with C166S, D334G counted along it
Kir6.2*,C166S-GFP + SUR1, sequence (Q09428 whole entry partner): as the sequence (Q09428 whole entry partner) above

SMILES: Nc1ncnc2c1ncn2[C@@H]1O[C@H](COP(=O)(O)OP(=O)(O)OP(=O)(O)O)[C@H]2OC3(O[C@H]21)C([N+](=O)[O-])=CC(=[N+]([O-])[O-])C=C3[N+](=O)[O-] (some centres unmarked) [TNP-ATP, trinitrophenyl-ATP]
- h (Hill coefficient) fluorescence quenching (Kir6.2*,G334D-GFP + SUR1): 2.63
- Emax (Kir6.2*,G334D-GFP + SUR1; fraction, read-out: Emax fluorescence quenching): 8%
- EC50 (Kir6.2*,G334D-GFP + SUR1; n = 9, read-out: EC50 fluorescence quenching): 493 µM
- IC50 (Kir6.2*,C166S-GFP + SUR1): 776 µM
- h (Hill coefficient) current inhibition (Kir6.2*,C166S-GFP + SUR1; excised inside-out patches, Mg2+-free, Hill fit): 1.35
